Reference: patent US7524973B2, “Nitrate esters of phenylaminothiophenacetic acid derivatives” (Altana Pharma AG, priority 2003, dated 2009)

Experiments:
COX-1 = molecular target: T1, COX-1 (Homo sapiens, UniProt P23219); test: In vitro Cox-1 assay (whole blood, TxB2); assay type: cell-based; conditions: fresh blood without anticoagulant, clotting 1 h at 37° C., TxB2 immunoassay; read-out: Inhibition of COX-1 activity [measured as pIC50] (converted)
T1 construct: Fresh blood was collected into vacutainers containing no anticoagulants; from tissue; host or cells: fresh whole blood without anticoagulant, allowed to clot
Method: Fresh blood was collected into vacutainers containing no anticoagulants. Aliquots of 450 μl were immediately transferred to deep well plates preloaded with 1 μl of either DMSO or a test compound at final concentration of 100 μM-10 nM. In addition 50 μl of Hydroxylamine/PBS were added and the tubes were vortexed and incubated at 37° C. for 1 h to allow the blood to clot. At the end of incubation, serum was obtained by centrifugation (2000 g/5 min) and the supernatant was assayed for TxB2 using a immunoassay kit (RD Systems, Germany) according to the manufactures instruction.
(§1) The data were analysed from 2-3 independent dose response curves with a nonlinear estimation program using GRAPHPAD/Prism and given as pIC50

COX-2 = molecular target: T2, COX-2 (Homo sapiens, UniProt P35354); test: In vitro Cox-2 assay (LPS-stimulated whole blood, PGE2); assay type: cell-based; conditions: heparinized blood, LPS 24 h, PGE2 immunoassay; read-out: Inhibition of COX-2 activity [measured as pIC50] (converted)
T2 construct: Fresh blood was collected in heparinized (8 U/ml, Roche, Switzerland) tubes; from tissue; host or cells: heparinized fresh whole blood stimulated with LPS for 24 h
T2 sequence (P35354 18-604): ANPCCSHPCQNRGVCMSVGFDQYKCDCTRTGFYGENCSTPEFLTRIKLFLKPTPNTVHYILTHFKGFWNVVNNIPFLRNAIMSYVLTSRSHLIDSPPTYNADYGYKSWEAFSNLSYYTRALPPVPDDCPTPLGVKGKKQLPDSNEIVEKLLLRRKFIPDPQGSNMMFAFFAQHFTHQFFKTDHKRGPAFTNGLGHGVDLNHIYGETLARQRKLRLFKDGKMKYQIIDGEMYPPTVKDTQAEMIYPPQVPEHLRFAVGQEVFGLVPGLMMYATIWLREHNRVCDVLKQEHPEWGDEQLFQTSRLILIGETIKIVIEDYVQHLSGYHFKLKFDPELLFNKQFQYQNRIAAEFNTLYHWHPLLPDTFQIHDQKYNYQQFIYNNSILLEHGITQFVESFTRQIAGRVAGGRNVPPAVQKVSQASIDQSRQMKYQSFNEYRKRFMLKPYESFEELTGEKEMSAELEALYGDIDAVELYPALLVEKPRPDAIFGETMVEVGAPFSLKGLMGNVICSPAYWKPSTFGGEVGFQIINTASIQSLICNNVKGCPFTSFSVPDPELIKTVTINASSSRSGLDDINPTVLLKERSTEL
Method: Fresh blood was collected in heparinized (8 U/ml, Roche, Switzerland) tubes by venipuncture from both male and female volunteers with consent The subjects had no apparent inflammatory conditions and had not taken any NSAIDs for the last 7 days prior to blood collection. 450 μl aliquots of blood were incubated in deep wells with either 1 μl vehicle (DMSO) or 1 μl of test compound at a final concentration varying from 100 μM-10 nM for 15 min at 37° C. This was followed by incubation of the blood with 50 μl lipopolysaccharide (LPS, Sigma, Germany) 10 μg/ml in 0.1% Hydroxylamine/PBS (Sigma) for 24 h. At the end of incubation the blood was centrifuged at 2000 g for 5 min and […] supernatant was assayed for PGE2 using a immunoassay kit (RD Systems, Germany )
as §1

T1 sequence (P23219 24-599): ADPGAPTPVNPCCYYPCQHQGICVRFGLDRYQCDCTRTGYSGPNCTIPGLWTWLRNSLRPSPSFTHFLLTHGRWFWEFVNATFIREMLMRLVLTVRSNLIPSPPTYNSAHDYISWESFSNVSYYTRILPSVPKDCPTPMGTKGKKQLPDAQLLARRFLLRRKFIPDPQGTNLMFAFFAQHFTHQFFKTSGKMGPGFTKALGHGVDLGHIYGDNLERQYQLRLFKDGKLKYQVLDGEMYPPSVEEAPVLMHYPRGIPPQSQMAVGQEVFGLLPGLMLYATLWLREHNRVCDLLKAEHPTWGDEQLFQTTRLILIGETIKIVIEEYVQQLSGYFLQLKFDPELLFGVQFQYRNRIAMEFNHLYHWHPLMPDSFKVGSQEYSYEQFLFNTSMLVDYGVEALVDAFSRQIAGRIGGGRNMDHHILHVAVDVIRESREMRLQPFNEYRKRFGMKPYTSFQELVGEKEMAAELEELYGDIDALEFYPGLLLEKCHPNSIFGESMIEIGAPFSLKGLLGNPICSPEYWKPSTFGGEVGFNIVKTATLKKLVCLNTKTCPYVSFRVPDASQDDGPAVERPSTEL

IC50 (COX-1): 89.1 nM | IC50 (COX-2): 72.4 nM
Structure (SMILES): O=C(Cc1cscc1Nc1c(Cl)cccc1Cl)OCCCCO[N+](=O)[O-] [Compound 1, [4-(2,6-Dichlorophenylamino)-thiophen-3-yl]-acetic acid 4-nitrooxybutyl ester]
